# Literature values as cited in patent publication EP3721896B1, “EPIDERMAL GROWTH FACTOR (EGF) AND VARIANTS THEREOF FOR TREATING OR PREVENTING INFLAMMATORY DEMYELINATING DISORDERS” (Scalabrino, Giuseppe, priority 2019, dated 2023).
# System: experimental autoimmune encephalomyelitis (EAE)
# Details: administered alone; Lewis rat; from EP1870106A2
substance,measurement,value
GHRP-6,Effect on course of EAE as compared to placebo,no effect was observed
